From the supplement of paper PMC10307832

What was measured:
Assay in all cases: relative viability (nuclei count vs DMSO), 5 days (fraction); higher = more cells survive
Bosutinib + Navitoclax = compound: COc1cc(Nc2c(C#N)cnc3cc(OCCCN4CCN(C)CC4)c(OC)cc23)c(Cl)cc1Cl [Bosutinib] + CC1(C)CCC(c2ccc(Cl)cc2)=C(CN2CCN(c3ccc(C(=O)NS(=O)(=O)c4ccc(N[C@H](CCN5CCOCC5)CSc5ccccc5)c(S(=O)(=O)C(F)(F)F)c4)cc3)CC2)C1 [Navitoclax] (partner 0.5 µM)
Outline: (§1)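 Values are medians from duplicate plates. Each reflects relative viability, defined as the nuclei count of treated wells over that of vehicle wells. Lung cancer cell lines in 1536-well plates were pin-tool dosed one day after seeding with one drug alone or with a fixed anchor-drug dose plus five library-drug doses (not always all listed) in √10 steps, then fixed, stained and imaged at 4× after 5 days.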

Bosutinib + Foretinib = compound: COc1cc(Nc2c(C#N)cnc3cc(OCCCN4CCN(C)CC4)c(OC)cc23)c(Cl)cc1Cl [Bosutinib] + COc1cc2c(Oc3ccc(NC(=O)C4(C(=O)Nc5ccc(F)cc5)CC4)cc3F)ccnc2cc1OCCCN1CCOCC1 [Foretinib] (partner 0.25 µM)
Outline: as §1

Bosutinib + Tozasertib = compound: COc1cc(Nc2c(C#N)cnc3cc(OCCCN4CCN(C)CC4)c(OC)cc23)c(Cl)cc1Cl [Bosutinib] + Cc1cc(Nc2cc(N3CCN(C)CC3)nc(Sc3ccc(NC(=O)C4CC4)cc3)n2)n[nH]1 [Tozasertib] (partner 0.1 µM)
Outline: as §1

Bosutinib + Dasatinib = compound: COc1cc(Nc2c(C#N)cnc3cc(OCCCN4CCN(C)CC4)c(OC)cc23)c(Cl)cc1Cl [Bosutinib] + Cc1nc(Nc2ncc(C(=O)Nc3c(C)cccc3Cl)s2)cc(N2CCN(CCO)CC2)n1 [Dasatinib] (partner 0.075 µM)
Outline: as §1

Bosutinib + Decitabine = compound: COc1cc(Nc2c(C#N)cnc3cc(OCCCN4CCN(C)CC4)c(OC)cc23)c(Cl)cc1Cl [Bosutinib] + Nc1ncn([C@H]2C[C@H](O)[C@@H](CO)O2)c(=O)n1 [Decitabine] (partner 2 µM)
Outline: as §1

Cell Line	relative viability (Bosutinib + Navitoclax; first compound 0.01 µM)	relative viability (Bosutinib + Navitoclax; first compound 0.03162 µM)	relative viability (Bosutinib + Navitoclax; first compound 0.1 µM)	relative viability (Bosutinib + Navitoclax; first compound 1 µM)	relative viability (Bosutinib + Foretinib; first compound 0.01 µM)	relative viability (Bosutinib + Foretinib; first compound 0.03162 µM)	relative viability (Bosutinib + Foretinib; first compound 0.1 µM)	relative viability (Bosutinib + Foretinib; first compound 1 µM)	relative viability (Bosutinib + Tozasertib; first compound 0.01 µM)	relative viability (Bosutinib + Tozasertib; first compound 0.03162 µM)	relative viability (Bosutinib + Tozasertib; first compound 0.1 µM)	relative viability (Bosutinib + Tozasertib; first compound 1 µM)	relative viability (Bosutinib + Dasatinib; first compound 0.01 µM)	relative viability (Bosutinib + Dasatinib; first compound 0.03162 µM)	relative viability (Bosutinib + Dasatinib; first compound 0.1 µM)	relative viability (Bosutinib + Dasatinib; first compound 1 µM)	relative viability (Bosutinib + Decitabine; first compound 0.01 µM)	relative viability (Bosutinib + Decitabine; first compound 0.03162 µM)	relative viability (Bosutinib + Decitabine; first compound 0.1 µM)	relative viability (Bosutinib + Decitabine; first compound 1 µM)
NCI-H2087	0.905	0.926	0.972	1.04	1.02	1.02	1.17	1.1	0.293	0.227	0.222	0.271	0.871	0.848	0.913	0.848	0.289	0.311	0.294	0.271
NCI-H2126	0.797	0.904	0.85	0.776	1.08	1.12	1.25	1.14	0.823	0.811	0.828	0.763	0.583	0.571	0.594	0.62	0.548	0.537	0.609	0.588
NCI-H2170	0.527	0.67	0.702	0.468	0.959	1	1.01	0.962	0.749	0.758	0.683	0.632	0.559	0.583	0.556	0.608	0.429	0.465	0.463	0.457
NCI-H2347	0.797	0.793	0.752	0.781	0.929	0.878	0.988	0.885	0.599	0.571	0.638	0.514	0.296	0.324	0.314	0.258	0.631	0.623	0.64	0.529
NCI-H2405	0.943	0.812	0.892	0.477	1.03	1.07	1.09	0.832	0.738	0.796	0.743	0.661	0.259	0.204	0.215	0.238	0.749	0.775	0.757	0.57
NCI-H3122	0.99	0.972	1.01	1.03	1.04	0.979	0.926	0.993	0.495	0.547	0.405	0.431	0.894	0.716	0.768	0.781	0.43	0.462	0.388	0.538
